In US11434227B2, “Broad spectrum antibacterial activity of novel bisbenzimidazoles targeting topoisomerase IA and the synergistic composition of bisbenzimidazole with efflux pump inhibitors against pathogenic bacteria” (Jawaharlal Nehru University (JNU), priority 2016, dated 2022):

How the values were obtained:
Assay in all cases: HN12b in combination with efflux pump inhibitors (CB method, FICI)
E. coli ATCC25922 = test system: E. coli ATCC25922
Protocol: (§1) 96-well microtiter plates containing MIC25 concentrations of the Efflux pump inhibitor (CCCP, PAβN) and HN12b antimicrobial drugs alone and in CB combination were used. The MICs of the individual drugs HN12b, PAβN and CCCP (0.25 to 128 μg/ml) and of the combinations were determined using the broth microdilution technique as recommended by the CLSI. Briefly, the broth microdilution plates were inoculated with each test organism to yield the appropriate density (10^5 CFU/ml) in 100 μl Mueller-Hinton broth (MHB) and incubated for 24 h at 37° C. in ambient air. One well with no antibiotic was used as a positive growth control on each plate. Plates were read for visual turbidity, and results were recorded after 24 h of incubation at 37° C. in ambient air by using a magnifying mirror reader, as turbidity in wells indicated growth of the microorganism. The MIC was determined as the well in the microtiter plate with the lowest drug concentration at which there was no visible growth. […] MICAB was defined as the MIC of drug A in the presence of drug B; MICBA was defined as the MIC of drug B in the presence of drug A.
(§2) The fractional inhibitory concentration index (FICI) was calculated for each antibiotic in each combination by using the following formula: FICA+FICB=FICI, where FICA equals the MIC of drug A in combination divided by the MIC of drug A alone and FICB equals the MIC of drug B in combination divided by the MIC of drug B alone. The FICIs were interpreted as follows: FICI of ≤0.5 will correspond to synergy; FICI of >0.5 to ≤1 will correspond to additivity; FICI of >1 to ≤4 will correspond to no interaction (indifference), and FICI of >4 will correspond antagonism.

E. coli KK45 = test system: E. coli KK45
Protocol: as §1, §2

A. baumannii (MTCC1920) = test system: A. baumannii (MTCC1920)
Protocol: as §1, §2

A. baumannii (AB387) = test system: A. baumannii (AB387)
Protocol: as §1, §2

[1] = test system: K. planticola (MTCC 2272)
Protocol: as §1, §2

K. planticola (1164) = test system: K. planticola (1164)
Protocol: as §1, §2

P. aeruginosa (MTCC1688) = test system: P. aeruginosa (MTCC1688)
Protocol: as §1, §2

P. aeruginosa (Ps 366) = test system: P. aeruginosa (Ps 366)
Protocol: as §1, §2

Enterococcus sp. (2105) = test system: Enterococcus sp. (2105)
Protocol: as §1, §2

Enterococcus sp. (1121) = test system: Enterococcus sp. (1121)
Protocol: as §1, §2

[2] = test system: Providencia sp. (MTCC 2102)
Protocol: as §1, §2

Providencia sp. (P592) = test system: Providencia sp. (P592)
Protocol: as §1, §2

For `N#CC(C#N)=NNc1cccc(Cl)c1` [CCCP, carbonyl cyanide-m-chlorophenyl hydrazone, reference compound], the MIC90 (E. coli ATCC25922; Escherichia coli, ATCC25922) was 11.8 mg/L, the MIC90 (E. coli KK45; Escherichia coli, KK45) was 12.3 mg/L and the MIC90 (A. baumannii (MTCC1920); Acinetobacter baumannii, MTCC1920) was 30.2 mg/L. The MIC90 (A. baumannii (AB387); Acinetobacter baumannii) was 12 mg/L, the MIC90 ([1]; Klebsiella planticola, MTCC2272) was 13.9 mg/L and the MIC90 (K. planticola (1164); Klebsiella planticola) was 14.7 mg/L. It also gave an MIC90 (P. aeruginosa (MTCC1688); Pseudomonas aeruginosa, MTCC1688) of 128 mg/L, an MIC90 (P. aeruginosa (Ps 366); Pseudomonas aeruginosa) of 128 mg/L and an MIC90 (Enterococcus sp. (2105); Enterococcus) of 27.7 mg/L. For the same molecule, the MIC90 (Enterococcus sp. (1121); Enterococcus) was 16.2 mg/L, the MIC90 ([2]; Providencia, MTCC2102) was 10.9 mg/L and the MIC90 (Providencia sp. (P592); Providencia) was 67.2 mg/L.
With “phenylalanine-arginine-β-naphthylamide [PAβN, reference compound]” the “(BA) MIC90” value (E. coli ATCC25922; E. coli ATCC25922, PAβN in presence of HN12b) was 4.8 mg/L, the MIC90 (E. coli ATCC25922; E. coli ATCC25922, single drug alone (A, B, C)) was 64 mg/L and the “(BA) MIC90” value (E. coli KK45; E. coli KK45, PAβN in presence of HN12b) was 10 mg/L. The “(BA) MIC90” value (A. baumannii (MTCC1920); A. baumannii (MTCC1920), PAβN in presence of HN12b) was 59 mg/L, the MIC90 (A. baumannii (MTCC1920); A. baumannii (MTCC1920), single drug alone (A, B, C)) was greater than 128 mg/L and the “(BA) MIC90” value (A. baumannii (AB387); A. baumannii (AB387), PAβN in presence of HN12b) was 32 mg/L. For the same molecule, the MIC90 (A. baumannii (AB387); A. baumannii (AB387), single drug alone (A, B, C)) was greater than 128 mg/L, the “(BA) MIC90” value ([1]; K. planticola (MTCC 2272), PAβN in presence of HN12b) was 62 mg/L and the MIC90 ([1]; K. planticola (MTCC 2272), single drug alone (A, B, C)) was greater than 128 mg/L. The “(BA) MIC90” value (K. planticola (1164); K. planticola (1164), PAβN in presence of HN12b) was 62 mg/L, the MIC90 (K. planticola (1164); K. planticola (1164), single drug alone (A, B, C)) was greater than 128 mg/L and the “(BA) MIC90” value (P. aeruginosa (MTCC1688); P. aeruginosa (MTCC1688), PAβN in presence of HN12b) was 60 mg/L. For the same molecule, the MIC90 (P. aeruginosa (MTCC1688); P. aeruginosa (MTCC1688), single drug alone (A, B, C)) was 123 mg/L, the “(BA) MIC90” value (P. aeruginosa (Ps 366); P. aeruginosa (Ps 366), PAβN in presence of HN12b) was 55 mg/L and the MIC90 (P. aeruginosa (Ps 366); P. aeruginosa (Ps 366), single drug alone (A, B, C)) was 120.2 mg/L. The “(BA) MIC90” value (Enterococcus sp. (2105); Enterococcus sp. (2105), PAβN in presence of HN12b) was 59 mg/L, the MIC90 (Enterococcus sp. (2105); Enterococcus sp. (2105), single drug alone (A, B, C)) was greater than 128 mg/L and the “(BA) MIC90” value (Enterococcus sp. (1121); Enterococcus sp. (1121), PAβN in presence of HN12b) was 63 mg/L. For the same molecule, the MIC90 (Enterococcus sp. (1121); Enterococcus sp. (1121), single drug alone (A, B, C)) was greater than 128 mg/L, the “(BA) MIC90” value ([2]; Providencia sp. (MTCC 2102), PAβN in presence of HN12b) was 58 mg/L and the MIC90 ([2]; Providencia sp. (MTCC 2102), single drug alone (A, B, C)) was greater than 128 mg/L. For the same molecule, the “(BA) MIC90” value (Providencia sp. (P592); Providencia sp. (P592), PAβN in presence of HN12b) was 38 mg/L and the MIC90 (Providencia sp. (P592); Providencia sp. (P592), single drug alone (A, B, C)) was greater than 128 mg/L.
